pIC50: −log10 of the molar value. Some results are limits rather than exact numbers.

Data set [1] is described as follows: Stability of MC2884 in cell culture medium (RP-HPLC). In kind it is physicochemical. As for the experimental part:
The compound was dissolved in DMEM at 50 µM and its concentration was measured by RP-HPLC using a ONYX 50 × 2 mm ID C18 column operating at 600 µL/min. The gradient applied was from 1% solvent B to 70% solvent B in 10 minutes. Solvent A was water with added 0.1% trifluoroacetic acid (TFA) and solvent B was acetonitrile with added 0.1% TFA. The eluate was monitored using a diode array detector with wavelengths set between 200–320 nm. The compound was eluted at 11.1 min. Peak integration was carried out on the chromatogram extracted at […], which is one of the compound absorbance maxima. A calibration curve was built by injecting solutions of the compound in DMSO at concentrations ranging between 1.5 µM and 200 µM. After incubation in DMEM compound concentration was determined at time points ranging between 0 and 72 hrs. As shown, half of compound was degraded after 10 h. At 72 hrs it was fully degraded under these conditions.

Data set [2] deals with KAT5 (Homo sapiens, UniProt Q92993). In words: HAT in vitro assay, 10-dose IC50, KAT5. In kind it is biochemical. The note with it: substrate Histone H2A, 3 μM Acetyl-CoA; read-out: Compound IC50 KAT5. As for the experimental part:
For HAT in vitro assay, MC2884 activity was also tested in vitro and IC50 was calculated as indicated in the scheme. […] Reactions were carried out at 3 μM Acetyl-CoA. Empty cells indicate no inhibition or compound activity that could not be fit to an IC50 curve.

Data set [3] deals with T1, CYP2D6 (Homo sapiens, UniProt P10635).
T1 construct: liver microsomes (0.5 mg/mL) and NADPH (1 mM) in; from tissue; host or cells: human liver microsomes
T1 sequence (P10635 whole entry): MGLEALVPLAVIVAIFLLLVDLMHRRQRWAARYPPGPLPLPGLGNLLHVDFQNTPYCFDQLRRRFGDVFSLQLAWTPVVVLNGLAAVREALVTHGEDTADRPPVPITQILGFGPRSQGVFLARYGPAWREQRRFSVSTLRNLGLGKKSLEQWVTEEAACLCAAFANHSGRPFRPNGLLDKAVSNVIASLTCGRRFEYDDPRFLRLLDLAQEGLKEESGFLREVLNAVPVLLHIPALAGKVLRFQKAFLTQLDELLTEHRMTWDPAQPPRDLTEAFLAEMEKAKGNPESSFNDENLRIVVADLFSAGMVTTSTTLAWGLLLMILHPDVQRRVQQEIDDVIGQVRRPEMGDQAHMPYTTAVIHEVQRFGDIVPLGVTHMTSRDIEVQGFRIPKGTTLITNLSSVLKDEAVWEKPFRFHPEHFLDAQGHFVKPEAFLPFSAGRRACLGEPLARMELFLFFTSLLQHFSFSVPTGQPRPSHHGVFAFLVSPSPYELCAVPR
In words: Cytochrome P450 inhibition, CYP2D6. In kind it is in vitro ADME. The note with it: human liver microsomes, probe dextromethorphan. As for the experimental part:
This provided a dose of 2 mg free base material/kg when Cytochrome p450 inhibition (5 isoform iC50 administered iv in a 5 mL/kg dosing volume. determination) mouse terminal ip pK study ADME-Tox Cytochrome P450 inhibition of Compound MC2884 was given ip at a dose of 2 mg/kg MC2884 using human liver microsomes as an estimation to a group of 24 normally fed male CD1 mice in a 10 mL/ of in vitro metabolism. kg injection volume. Terminal blood samples (> 230 μL) MC2884 (0.1 μM–25 μM) was incubated with were taken under CO2 from groups of 3 mice at each of 8 human liver microsomes and NADPH in the presence time-points post dose (0.083, 0.25, 0.5, 1, 2, 4, 8 and 24 h) of a cytochrome P450 isoform-specific probe substrate. and placed into heparinized tubes. […]
All samples were stored at −20° C measuring the formation of a fluorescent metabolite. […]
Cyp2C19 inhibition (0.1 mg/mL) and NADPH (1 mM) in the presence of the probe substrate midazolam (2.5 μM) for 5 min at Six test compound samples at concentrations 37° C. […] For the CYP1A incubations, the reactions microsomes (0.5 mg/mL) and NADPH (1 mM) in the were terminated by methanol, and the formation of the presence of the probe substrate mephenytoin (25 μM) metabolite, resorufin, was monitored by fluorescence for 60 min at 37° C. […]

The test system of data set [4] is HCT116 colon carcinoma. As to the kind of experiment: HCT116 colon carcinoma xenograft, tumor volume. In kind it is in vivo, mice. The note with it: 10 mg/Kg i.p., day 19. As for the experimental part: HCT116 cell line was grown in McCoy’s medium, supplemented with 10% inactivated FBS, 2 mM glutamine and standard concentration of antibiotics. 7- to 8-week-old male CD1 nude athymic mice were purchased from Charles River and under pathogen-free conditions in accordance with European Directives no. 2010/63 and with Italian D.L. 26/2014. Mice were injected subcutaneously into the right flank with 4 × 10^6 of HCT116 cells; tumor volume (mm^3) was evaluated three times a week by caliper using the formula Dmax x dmin^^2/2, where ‘d’ and ‘D’ are the shortest and the longest diameters, respectively. For all experiments, mice were randomly divided (n = 7) and intra-peritoneal injected by day five every day with: vehicle sesame oil/DMSO 6%; MC2884 10 mg/Kg in sesame oil/DMSO 6%. Mice were sacrificed after 20 days of drug treatment and tumors explanted for immunohistochemical analyses. For HCT116-DKO colon cancer, 6 × 10^6 cells were injected.

Data set [5] relates to endometrial stromal cells. In words: Cytotoxic effect on immortalized non-cancer endometrial stromal cells. In kind it is cell-based.
Data set [6] has as its target HDAC1 (Homo sapiens, UniProt Q13547). As to the kind of experiment: HDAC1 in vitro assay. In kind it is biochemical. As for the experimental part:
The HDAC1 and SIRT1 assays were performed as described previously.

Chain of KAT5 (Q92993 whole entry): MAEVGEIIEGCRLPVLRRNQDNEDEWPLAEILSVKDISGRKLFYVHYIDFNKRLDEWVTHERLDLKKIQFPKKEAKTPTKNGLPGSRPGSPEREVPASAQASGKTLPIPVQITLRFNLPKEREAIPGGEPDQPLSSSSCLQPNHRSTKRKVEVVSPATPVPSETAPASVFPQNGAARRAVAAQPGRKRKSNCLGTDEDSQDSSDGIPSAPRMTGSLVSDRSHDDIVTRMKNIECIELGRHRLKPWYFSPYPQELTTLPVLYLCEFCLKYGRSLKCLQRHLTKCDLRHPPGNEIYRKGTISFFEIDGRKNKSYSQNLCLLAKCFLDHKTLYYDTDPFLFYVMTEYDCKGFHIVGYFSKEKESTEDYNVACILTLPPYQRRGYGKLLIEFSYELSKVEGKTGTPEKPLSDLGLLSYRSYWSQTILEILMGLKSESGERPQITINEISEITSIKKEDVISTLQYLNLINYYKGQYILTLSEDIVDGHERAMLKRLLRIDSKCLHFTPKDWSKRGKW
Chain of HDAC1 (Q13547 whole entry): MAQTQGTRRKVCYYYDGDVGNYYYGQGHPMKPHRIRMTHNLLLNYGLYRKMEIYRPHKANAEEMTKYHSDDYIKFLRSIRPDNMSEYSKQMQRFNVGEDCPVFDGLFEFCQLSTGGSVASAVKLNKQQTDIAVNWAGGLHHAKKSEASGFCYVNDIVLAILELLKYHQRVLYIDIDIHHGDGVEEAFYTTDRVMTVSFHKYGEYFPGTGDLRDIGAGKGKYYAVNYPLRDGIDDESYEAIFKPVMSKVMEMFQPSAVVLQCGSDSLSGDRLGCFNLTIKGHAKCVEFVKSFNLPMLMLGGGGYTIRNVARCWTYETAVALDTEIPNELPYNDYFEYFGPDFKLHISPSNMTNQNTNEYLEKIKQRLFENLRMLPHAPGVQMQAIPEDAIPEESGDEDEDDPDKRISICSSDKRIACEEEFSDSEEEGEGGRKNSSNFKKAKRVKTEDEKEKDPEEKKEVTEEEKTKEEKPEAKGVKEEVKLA

Turning to `O=C1/C(=C/c2cccc(Br)c2)CN(Cc2ccccc2)C/C1=C\c1cccc(Br)c1` [MC2884], the half-life at 50 µM in data set [1] (DMEM cell culture medium, read-out: half-life in cell culture media (converted)) is 10 h. For the same compound, the “time for total degradation in cell culture media” value in data set [1] (DMEM, 50 µM) amounted to 72 h. In addition, the pIC50 was 6.08 in data set [2] and less than 4.60 in data set [3]. The “tumor volume reduction versus untreated mice” value in data set [4] is 90%. The “cytotoxic effect on endometrial stromal cells” value in data set [5] is recorded as “insensitive”. Further, the HDAC modulating action entry in data set [6] is reported as “no activity”.

These data come from paper PMC5986654, “Combined HAT/EZH2 modulation leads to cancer-selective cell death” (Oncotarget, 2018).
